Literature values, collected in US6500409B1, “Synergistic antiplaque/antigingivitis oral composition” (Colgate Palmolive Company, priority 2000, dated 2002).

Assays:
S. mutans = settings: in vitro
[1] = tested on: plaque adherence to teeth; settings: in vitro

Structure (SMILES) | Bactericidal activity in MIC test, in words (S. mutans) | Inhibition of plaque adherence to teeth, in words [1]
C=CCc1ccc(O)c(-c2ccc(O)c(CC=C)c2)c1 [honokiol] | bactericidal | not found to be inhibitory
C=CCc1ccc(O)c(-c2cc(CC=C)ccc2O)c1 [magnolol] | bactericidal | not found to be inhibitory
